Legend:
[1] = molecular target: human DNA polymerase alpha (Homo sapiens (Human), UniProt P09884); assay: Human DNA polymerase inhibition assay, pol alpha; settings: read-out: Human DNA pol α (IC50 uM)
[2] = molecular target: human DNA polymerase beta (Homo sapiens (Human), UniProt P06746); assay: Human DNA polymerase inhibition assay, pol beta; settings: read-out: Human DNA pol β (IC50 uM)
[3] = molecular target: human DNA polymerase gamma (Homo sapiens (Human), UniProt P54098); assay: Human DNA polymerase inhibition assay, pol gamma
[4] = Cytotoxicity in Huh-7 cells (DNA virus table); type: cell-based; settings: human, Huh-7 cells; beside Adenovirus
[5] = test system: Huh-7 Cells; assay: Cytotoxicity in Huh-7 cells (DNA virus table); type: cell-based; settings: beside HSV-1
[6] = Cytotoxicity in MRC-5 cells (DNA virus table); type: cell-based; settings: human, MRC-5 cells; beside HCMV
[7] = test system: MRC-5 Cells; assay: Cytotoxicity in MRC-5 cells (DNA virus table); type: cell-based; settings: beside VZV
[8] = test system: HBV; assay: HBV replication in HepG2.2.15 cells (viral DNA by qPCR); type: cell-based; settings: Hepatitis B virus
Protocol: HepG2.2.15 cells (100 μL) in RPMI1640 medium with 10% fetal bovine serum was added to all wells of a 96-well plate at a density of 1×10^4 cells per well and the plate was incubated at 37° C. in an environment of 5% CO2 for 24 hours. Following incubation, six ten-fold serial dilutions of test compound prepared in RPMI1640 medium with 10% fetal bovine serum were added to individual wells of the plate in triplicate. Six wells in the plate received medium alone as a virus only control. The plate was incubated for 6 days at 37° C. in an environment of 5% CO2. The culture medium was changed on day 3 with medium containing the indicated concentration of each compound. One hundred microliters of supernatant was collected from each well for analysis of viral DNA by qPCR and cytotoxicity was evaluated by XTT staining of the cell culture monolayer on the sixth day.
Ten microliters of cell culture supernatant collected on the sixth day was diluted in qPCR dilution buffer (40 μg/mL sheared salmon sperm DNA) and boiled for 15 minutes. Quantitative real time PCR was performed in […] using an Applied Biosystems 7900HT Sequence Detection System and the supporting SDS 2.4 software. […]

[9] = Cytotoxicity in PBM cells; type: cell-based; settings: human, PHA-P-stimulated peripheral blood mononuclear cells (PBMCs); beside HIV
[10] = test system: HIV; assay: HIV infected PBMC assay; type: cell-based; settings: Human immunodeficiency virus 1, PBMC
Protocol: Fresh human peripheral blood mononuclear cells (PBMCs) were obtained from a commercial source (Biological Specialty) and were determined to be seronegative for HIV and HBV. Depending on the volume of donor blood received, the leukophoresed blood cells were washed several times with PBS. After washing, the leukophoresed blood was diluted 1:1 with Dulbecco's phosphate buffered saline (PBS) and layered over 15 mL of Ficoll-Hypaque density gradient in a 50 ml conical centrifuge tube. These tubes were centrifuged for 30 min at 600 g. Banded PBMCs were gently aspirated from the resulting interface and washed three times with PBS. After the final wash, cell number was determined by Trypan Blue dye exclusion and cells were re-suspended at 1×10^ 6 cells/mL in RPMI 1640 with 15% Fetal Bovine Serum (FBS), 2 mmol/L L-glutamine, 2 μg/mL PHA-P, 100 U/mL penicillin and 100 μg/mL streptomycin and allowed to incubate for 48-72 hours at 37° C. After incubation, PBMCs were centrifuged and resuspended in tissue culture medium. […]
Following addition of test compound to the wells, 50 μL of a predetermined dilution of HIV virus (prepared from 4× of final desired in-well concentration) was added, and mixed well. […] After 7 days in culture, HIV-1 replication was quantified in the tissue culture supernatant by measurement of reverse transcriptase (RT) activity. […]

[11] = test system: HSV-1; assay: Inhibition of DNA virus replication, HSV-1; type: cell-based; settings: Human alphaherpesvirus 1
[12] = test system: Adenovirus; assay: Inhibition of DNA virus replication, Adenovirus; type: cell-based; settings: unidentified adenovirus
[13] = test system: HCMV; assay: Inhibition of DNA virus replication, HCMV; type: cell-based; settings: Human betaherpesvirus 5
[14] = Cytotoxicity in HepG2 cells (XTT); type: cell-based; settings: human, beside HBV
Protocol: The 50% cytotoxic concentration for the test materials are derived by measuring the reduction of the tetrazolium dye XTT in the treated tissue culture plates. XTT is metabolized by the mitochondrial enzyme NADPH oxidase to a soluble formazan product in metabolically active cells. XTT solution was prepared daily as a stock of 1 mg/mL in PBS. Phenazine methosulfate (PMS) stock solution was prepared at 0.15 mg/mL in PBS and stored in the dark at −20° C. XTT/PMS solution was prepared immediately before use by adding 40 µL of PMS per 1 mL of XTT solution. Fifty microliters of XTT/PMS was added to each well of the plate and the plate incubated for 2-4 hours at 37° C. The 2-4 hour incubation has been empirically determined to be within linear response range for XTT dye reduction with the indicated numbers of cells for each assay. Adhesive plate sealers were used in place of the lids, the sealed plate was inverted several times to mix the soluble formazan product and the plate was read at 450 nm (650 nm reference wavelength) with a Molecular Devices SpectraMax Plus 384 spectrophotometer. Data were collected by Softmax 4.6 software and imported into an Excel spreadsheet for analysis.

[15] = test system: VZV; assay: Inhibition of DNA virus replication, VZV; type: cell-based; settings: Human alphaherpesvirus 3
[16] = test system: COXV B3; assay: CPE reduction assay, COXV B3; type: cell-based
[17] = test system: EV70; assay: CPE reduction assay, EV70; type: cell-based; settings: Huh-7; EV70, strain J670/71, Huh7 cells
[18] = test system: COXV A18; assay: CPE reduction assay, COXV A18; type: cell-based; settings: Huh-7; COXV A18, strain G13, Huh7 cells
[19] = Cytotoxicity in MRC-5 cells (enterovirus assays); type: cell-based; settings: human, line of EV71 H
[20] = in vitro; settings: human
[21] = test system: HRV; assay: CPE reduction assay, HRV; type: cell-based; settings: HeLa
[22] = test system: COXV B2; assay: CPE reduction assay, COXV B2; type: cell-based; settings: COXV B2, strain Ohio 1, Huh7 cells
[23] = Cytotoxicity in HeLa cells (enterovirus assays); type: cell-based; settings: human, line of HRV 26
[24] = test system: HeLa; assay: Cytotoxicity in HeLa cells (enterovirus assays); type: cell-based; settings: line of HRV 1059
[25] = test system: EV68; assay: CPE reduction assay, EV68; type: cell-based; settings: EV68, strain US/KY/14-18953, RD cells
[26] = test system: EV71; assay: CPE reduction assay, EV71; type: cell-based; settings: Enterovirus A
[27] = test system: COXV A7; assay: CPE reduction assay, COXV A7; type: cell-based; settings: Huh-7; COXV A7, strain WP Parker, Huh7 cells
[28] = test system: COXV B1; assay: CPE reduction assay, COXV B1; type: cell-based; settings: Huh-7; COXV B1, strain Conn5, Huh7 cells
[29] = Cytotoxicity in RD cells (enterovirus assays); type: cell-based; settings: human
[30] = test system: Huh7; assay: Cytotoxicity in Huh7 cells (enterovirus assays)
[31] = test system: COXV B4; assay: CPE reduction assay, COXV B4; type: cell-based; settings: Huh-7; COXV B4, strain JVB, Huh7 cells
[32] = test system: CV-B3; settings: read-out: EC50 against CV-B3; cited from earlier work

human DNA polymerase gamma, sequence (P54098 whole entry): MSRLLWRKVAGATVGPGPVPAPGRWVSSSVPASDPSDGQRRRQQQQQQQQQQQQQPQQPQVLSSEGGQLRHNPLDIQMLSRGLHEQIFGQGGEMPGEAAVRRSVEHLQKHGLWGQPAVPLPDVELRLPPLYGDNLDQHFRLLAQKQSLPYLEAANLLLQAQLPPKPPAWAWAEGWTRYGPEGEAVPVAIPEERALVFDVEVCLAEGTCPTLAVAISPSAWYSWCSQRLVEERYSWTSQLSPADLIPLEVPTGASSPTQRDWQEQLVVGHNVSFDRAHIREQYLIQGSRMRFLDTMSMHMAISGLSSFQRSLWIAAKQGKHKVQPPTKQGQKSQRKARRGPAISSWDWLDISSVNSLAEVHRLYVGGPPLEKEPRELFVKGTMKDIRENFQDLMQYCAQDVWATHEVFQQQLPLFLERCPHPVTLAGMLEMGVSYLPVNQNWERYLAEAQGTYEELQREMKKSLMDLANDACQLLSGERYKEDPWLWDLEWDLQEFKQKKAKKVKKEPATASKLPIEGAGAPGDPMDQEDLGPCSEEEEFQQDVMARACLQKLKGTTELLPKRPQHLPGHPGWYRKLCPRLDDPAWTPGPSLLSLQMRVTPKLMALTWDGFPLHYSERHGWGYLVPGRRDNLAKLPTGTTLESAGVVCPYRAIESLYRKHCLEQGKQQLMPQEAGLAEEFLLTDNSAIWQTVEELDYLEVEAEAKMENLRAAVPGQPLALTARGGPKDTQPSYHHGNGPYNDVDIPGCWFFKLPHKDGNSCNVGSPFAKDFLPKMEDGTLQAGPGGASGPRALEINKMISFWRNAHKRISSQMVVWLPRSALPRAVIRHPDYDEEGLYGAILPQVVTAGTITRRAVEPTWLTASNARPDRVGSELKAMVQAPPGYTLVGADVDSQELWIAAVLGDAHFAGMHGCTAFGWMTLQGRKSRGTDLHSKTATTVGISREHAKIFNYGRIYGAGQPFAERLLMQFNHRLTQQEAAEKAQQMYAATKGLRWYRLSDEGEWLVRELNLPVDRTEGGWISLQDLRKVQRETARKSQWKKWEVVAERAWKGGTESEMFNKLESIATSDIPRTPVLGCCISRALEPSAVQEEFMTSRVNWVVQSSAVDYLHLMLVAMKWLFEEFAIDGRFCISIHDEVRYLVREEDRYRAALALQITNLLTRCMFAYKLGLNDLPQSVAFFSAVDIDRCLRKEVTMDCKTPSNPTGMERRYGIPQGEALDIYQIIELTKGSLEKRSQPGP
human DNA polymerase alpha, sequence (P09884 whole entry): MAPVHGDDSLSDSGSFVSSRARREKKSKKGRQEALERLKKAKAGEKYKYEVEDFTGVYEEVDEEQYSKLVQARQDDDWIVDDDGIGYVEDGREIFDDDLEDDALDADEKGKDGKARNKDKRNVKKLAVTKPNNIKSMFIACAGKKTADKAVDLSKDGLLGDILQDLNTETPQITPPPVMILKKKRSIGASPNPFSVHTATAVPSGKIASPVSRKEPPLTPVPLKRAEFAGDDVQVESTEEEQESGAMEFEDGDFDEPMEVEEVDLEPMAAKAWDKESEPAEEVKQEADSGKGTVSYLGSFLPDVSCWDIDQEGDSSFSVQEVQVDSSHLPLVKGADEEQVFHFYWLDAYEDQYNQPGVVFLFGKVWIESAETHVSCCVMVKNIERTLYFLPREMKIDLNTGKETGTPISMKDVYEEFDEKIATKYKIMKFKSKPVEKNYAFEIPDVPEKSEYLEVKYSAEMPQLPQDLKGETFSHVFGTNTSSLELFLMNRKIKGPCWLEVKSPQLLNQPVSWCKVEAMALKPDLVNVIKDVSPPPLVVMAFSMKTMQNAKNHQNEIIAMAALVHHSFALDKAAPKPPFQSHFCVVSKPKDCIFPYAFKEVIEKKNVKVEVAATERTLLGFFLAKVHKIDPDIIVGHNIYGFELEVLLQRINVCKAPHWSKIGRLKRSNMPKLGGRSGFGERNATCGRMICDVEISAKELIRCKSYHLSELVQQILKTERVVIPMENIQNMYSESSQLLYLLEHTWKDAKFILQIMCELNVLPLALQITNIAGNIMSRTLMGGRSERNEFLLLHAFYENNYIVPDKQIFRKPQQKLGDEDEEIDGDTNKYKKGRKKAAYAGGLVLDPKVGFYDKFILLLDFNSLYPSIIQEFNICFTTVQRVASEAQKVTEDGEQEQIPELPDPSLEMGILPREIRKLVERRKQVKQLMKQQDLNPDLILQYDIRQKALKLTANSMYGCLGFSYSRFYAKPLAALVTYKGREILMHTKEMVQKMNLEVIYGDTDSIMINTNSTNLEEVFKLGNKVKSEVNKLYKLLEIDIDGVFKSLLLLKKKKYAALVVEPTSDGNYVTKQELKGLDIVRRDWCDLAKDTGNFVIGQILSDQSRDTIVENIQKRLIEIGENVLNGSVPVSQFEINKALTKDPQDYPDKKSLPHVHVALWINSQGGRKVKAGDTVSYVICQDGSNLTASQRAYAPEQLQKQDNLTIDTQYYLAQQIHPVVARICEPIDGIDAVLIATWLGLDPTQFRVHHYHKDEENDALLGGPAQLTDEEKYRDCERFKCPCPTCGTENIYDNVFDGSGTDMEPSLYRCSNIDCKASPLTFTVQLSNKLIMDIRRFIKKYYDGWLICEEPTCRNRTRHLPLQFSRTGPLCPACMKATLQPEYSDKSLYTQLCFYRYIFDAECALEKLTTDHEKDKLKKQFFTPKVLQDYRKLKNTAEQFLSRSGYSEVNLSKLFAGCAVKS

Structure (SMILES): CC1(O)[C@@H](O)[C@@H](COP(=O)(O)OP(=O)(O)OP(=O)(O)O)O[C@H]1n1ccc(=O)[nH]c1=S (stereo partly drawn)
- IC50 [1]: > 1000 µM
- IC50 [2]: 588 µM
- IC50 [3]: > 1000 µM

Structure (SMILES): CC(C)OC(=O)[C@H](C)NP(=O)(OC[C@H]1O[C@@H](n2ccc(=O)[nH]c2=S)C(C)(O)[C@H]1O)Oc1ccccc1 (stereo partly drawn)
- CC50 [4]: > 100 µM
- CC50 [5]: > 100 µM
- CC50 [6]: > 100 µM
- CC50 [7]: > 100 µM
- IC50 [8]: > 100 µM
- CC50 at 7 days [9]: > 100 µM
- EC50 [10]: > 100 µM
- EC50 [11]: > 100 µM
- IC50 [12]: > 100 µM
- EC50 [13]: > 100 µM
- CC50 [14]: > 100 µM
- EC50 [15]: > 100 µM

Structure (SMILES): CC(C)(C)C(=O)OCOP(=O)(OCOC(=O)C(C)(C)C)OC[C@H]1O[C@@H](n2ccc(=O)[nH]c2=S)[C@](C)(O)[C@@H]1O [EIDD-2523]
- EC50 ([16]; Huh-7, COXV B3 (printed COXV 83 in the 3rd table), strain HA 201933, Huh7 cells): 9.3 µM
- EC50 ([16]; Huh-7, COXV B3, strain Nancy, Huh7 cells): 0.38 µM
- EC50 [17]: 0.07 µM
- EC50 [18]: 2.69 µM
- CC50 [19]: 32 µM
- CC50 [20]: 31 µM
- EC50 ([21]; strain 26, HeLa cells): 0.43 µM
- EC50 ([21]; strain 1059, HeLa cells): 0.72 µM
- EC50 [22]: 2.65 µM
- CC50 [23]: > 100 µM
- CC50 [24]: > 100 µM
- EC50 [25]: 0.38 µM
- EC50 ([26]; MRC5, EV71, strain H, MRC-5 cells): 1.71 µM
- EC50 ([26]; EV71, strain Tainan/4643/98, RD cells): 5.3 µM
- EC50 [27]: 3.37 µM
- EC50 [28]: > 31 µM
- CC50 ([29]; line of EV68 US/KY/14-18953): 91 µM
- CC50 ([29]; line of EV71 Tainan/4643/98): 50 µM
- CC50 ([30]; line of COXV A7 WP Parker): 30 µM
- CC50 ([30]; line of COXV A18 G13): 32 µM
- CC50 ([30]; line of COXV B1 Conn5): 31 µM
- CC50 ([30]; line of COXV B2 Ohio 1): 34 µM
- CC50 ([30]; line of COXV B3 HA 201933): 46 µM
- CC50 ([30]; line of COXV B3 Nancy): 32 µM
- CC50 ([30]; line of COXV B4 JVB): 16 µM
- EC50 [31]: > 16 µM

Structure (SMILES): CN(C)c1ccc(C(=O)O)cc1 [4-Dimethylamino benzoic acid]
- EC50 [32]: 9 µM

Reference: patent US20250281519A1, “NUCLEOTIDE AND NUCLEOSIDE THERAPEUTIC COMPOSITIONS, COMBINATIONS AND USES RELATED THERETO” (EMORY UNIVERSITY, priority 2021, published 2025)
